# Columns and labels:
# Experiment in all cases: Bliss excess, mean over the matrix (fraction); higher = more synergy
# [1] = tested on: HuCCT1 (Biliary Tract Carcinoma)
# Outline: (§1)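 Bliss excess equals the observed combination effect minus the expected value EA + EB − EA·EB, where EA and EB are the effects of each agent alone. Combination Emax is the second-highest inhibition within the matrix. Inhibition was scaled from CellTiter-Glo 2.0 luminescence, with 0 set by vehicle wells and 1 by blank wells, after 72 hours of two-drug dosing of cells plated in 1536-well plates.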
# [2] = tested on: LS-123 (Colorectal Carcinoma)
# Outline: as §1
# [3] = tested on: BE-13 (T-Lymphoblastic Leukemia)
# Outline: as §1
# [4] = tested on: ALL-PO (B-Lymphoblastic Leukemia)
# Outline: as §1
# [5] = tested on: HH (T-Cell Non-Hodgkin's Lymphoma)
# Outline: as §1
# [6] = tested on: YAPC (Pancreatic Carcinoma)
# Outline: as §1
# [7] = tested on: SW1573 (Lung Adenocarcinoma)
# Outline: as §1
# [8] = tested on: L-428 (Hodgkin's Lymphoma)
# Outline: as §1
# [9] = tested on: LNZTA3WT4 (Low Grade Glioma)
# Outline: as §1
# BPH-1 (Non-Cancerous) = tested on: BPH-1 (Non-Cancerous)
# Outline: as §1
# [10] = tested on: SNU-16 (Gastric Carcinoma)
# Outline: as §1
# [11] = tested on: HuH-7 (Hepatocellular Carcinoma)
# Outline: as §1
# [12] = tested on: ESS-1 (Other Solid Carcinomas)
# Outline: as §1
# [13] = tested on: NCI-H524 (Small Cell Lung Carcinoma)
# Outline: as §1
# [14] = tested on: NCI-H209 (Small Cell Lung Carcinoma)
# Outline: as §1
# [15] = tested on: TGBC1TKB (Biliary Tract Carcinoma)
# Outline: as §1
# [16] = tested on: FTC-133 (Thyroid Gland Carcinoma)
# Outline: as §1
# [17] = tested on: Hs-746T (Gastric Carcinoma)
# Outline: as §1
# [18] = tested on: CAL-33 (Oral Cavity Carcinoma)
# Outline: as §1
# [19] = tested on: BFTC-909 (Kidney Carcinoma)
# Outline: as §1
SMILES,Bliss excess [1],Bliss excess [2],Bliss excess [3],Bliss excess [4],Bliss excess [5],Bliss excess [6],Bliss excess [7],Bliss excess [8],Bliss excess [9],Bliss excess (BPH-1 (Non-Cancerous)),Bliss excess [10],Bliss excess [11],Bliss excess [12],Bliss excess [13],Bliss excess [14],Bliss excess [15],Bliss excess [16],Bliss excess [17],Bliss excess [18],Bliss excess [19]
"CN(C)CCCOc1ccc(-c2ccc3ncc4c(c3c2)n(C2CCOCC2)c(=O)n4C)cn1 [AZD0156] + C=CCn1c(=O)c2cnc(Nc3ccc(N4CCN(C)CC4)cc3)nc2n1-c1cccc(C(C)(C)O)n1 [AZD1775] (first compound max 1 µM, partner max 1 µM)",-0.0382,-0.0229,-0.0329,0.0128,-0.0689,-0.0575,-0.0423,0.0106,-0.0561,0.0475,-0.0158,-0.0497,-0.124,-0.0204,-0.0624,-0.0734,-0.0416,-0.0305,-0.0497,-0.0638
"CN(C)CCCOc1ccc(-c2ccc3ncc4c(c3c2)n(C2CCOCC2)c(=O)n4C)cn1 [AZD0156] + CCN(CCO)CCCOc1ccc2c(Nc3cc(CC(=O)Nc4cccc(F)c4)[nH]n3)ncnc2c1 [AZD2811] (first compound max 1 µM, 7x7, partner max 1 µM)",-0.0274,-0.0409,-0.0908,-0.024,-0.0412,-0.0536,-0.0205,0.0314,-0.0162,0.0625,0.0244,-0.0381,0.0179,-0.0083,0.0922,-0.043,-0.0214,-0.0747,-0.0139,-0.0015
"CN(C)CCCOc1ccc(-c2ccc3ncc4c(c3c2)n(C2CCOCC2)c(=O)n4C)cn1 [AZD0156] + C[C@@H]1COCCN1C2=NC(=NC(=C2)C3(CC3)[S@](=N)(=O)C)C4=C5C=CNC5=NC=C4 [AZD6738] (first compound max 1 µM, 7x7, partner max 10 µM)",0.0297,-0.0313,-0.0619,0.0402,0.0175,-0.0354,-0.0315,0.0132,-0.0016,-0.0092,0.0529,0.0196,-0.0177,0.0229,0.0711,-0.0227,-0.0043,-0.0211,-0.0178,0.027
"CN(C)CCCOc1ccc(-c2ccc3ncc4c(c3c2)n(C2CCOCC2)c(=O)n4C)cn1 [AZD0156] + O=C(c1cc(Cc2n[nH]c(=O)c3ccccc23)ccc1F)N1CCN(C(=O)C2CC2)CC1 [Olaparib] (first compound max 3 µM, partner max 3 µM)",-0.0012,-0.0346,0.0894,0.0594,-0.0513,0.0131,-0.0002,-0.0116,-0.0184,0.158,–,-0.0107,0.0655,0.179,0.163,-0.0294,–,0.0802,0.0741,0.0705
"C=CCn1c(=O)c2cnc(Nc3ccc(N4CCN(C)CC4)cc3)nc2n1-c1cccc(C(C)(C)O)n1 [AZD1775] + C1CN(CCC1(C(=O)N[C@@H](CCO)C2=CC=C(C=C2)Cl)N)C3=NC=NC4=C3C=CN4 [Capivasertib] (first compound max 3 µM, partner max 3 µM)",–,-0.0341,-0.0508,-0.0134,-0.144,-0.0097,-0.0229,-0.0138,-0.0111,-0.0371,–,0.0263,-0.0251,-0.0075,–,-0.0061,–,0.031,0.066,-0.0004
"C=CCn1c(=O)c2cnc(Nc3ccc(N4CCN(C)CC4)cc3)nc2n1-c1cccc(C(C)(C)O)n1 [AZD1775] + C[C@@H]1COCCN1C2=NC(=NC(=C2)C3(CC3)[S@](=N)(=O)C)C4=C5C=CNC5=NC=C4 [AZD6738] (first compound max 1 µM, partner max 10 µM)",-0.0205,-0.0519,0.0159,0.0624,0.0379,-0.0399,0.0334,0.0246,0.0076,0.0614,-0.0002,0.0027,-0.015,0.051,0.0422,0.0388,0.0508,-0.0095,0.0324,0.0858
"C=CCn1c(=O)c2cnc(Nc3ccc(N4CCN(C)CC4)cc3)nc2n1-c1cccc(C(C)(C)O)n1 [AZD1775] + O=C(c1cc(Cc2n[nH]c(=O)c3ccccc23)ccc1F)N1CCN(C(=O)C2CC2)CC1 [Olaparib] (first compound max 1 µM, partner max 10 µM)",-0.0149,-0.0694,-0.0409,0.0063,-0.0449,-0.071,-0.0268,-0.0252,-0.0395,-0.0199,0.0102,-0.0107,-0.0316,0.0424,-0.0579,-0.0558,-0.0645,-0.0594,-0.0073,0.0075
"CN(CCO)CC[C@H](CSc1ccccc1)Nc1ccc(S(=O)(=O)NC(=O)c2ccc(N3CCC([C@@H](O)c4ccccc4-c4ccc(Cl)cc4)CC3)cc2)cc1S(=O)(=O)C(F)(F)F [AZD4320] + C1CN(CCC1(C(=O)N[C@@H](CCO)C2=CC=C(C=C2)Cl)N)C3=NC=NC4=C3C=CN4 [Capivasertib] (first compound max 1 µM, 7x7, partner max 3 µM)",-0.0536,–,-0.0175,0.0177,0.0193,-0.0415,-0.0614,-0.0146,-0.0176,-0.0496,0.0015,-0.0402,0.0028,-0.0517,-0.0057,-0.0306,-0.0459,0.0094,-0.0424,-0.0955
"CN(CCO)CC[C@H](CSc1ccccc1)Nc1ccc(S(=O)(=O)NC(=O)c2ccc(N3CCC([C@@H](O)c4ccccc4-c4ccc(Cl)cc4)CC3)cc2)cc1S(=O)(=O)C(F)(F)F [AZD4320] + C=CCn1c(=O)c2cnc(Nc3ccc(N4CCN(C)CC4)cc3)nc2n1-c1cccc(C(C)(C)O)n1 [AZD1775] (first compound max 1 µM, partner max 1 µM)",-0.0514,–,0.046,0.0631,0.0911,-0.0482,0.0152,0.0961,-0.0201,0.0378,0.0049,0.0346,0.002,0.055,0.0963,0.0352,0.0341,-0.0054,-0.0266,0.0577
"CN(CCO)CC[C@H](CSc1ccccc1)Nc1ccc(S(=O)(=O)NC(=O)c2ccc(N3CCC([C@@H](O)c4ccccc4-c4ccc(Cl)cc4)CC3)cc2)cc1S(=O)(=O)C(F)(F)F [AZD4320] + CN(C)CCCOc1ccc(-c2ccc3ncc4c(c3c2)n(C2CCOCC2)c(=O)n4C)cn1 [AZD0156] (first compound max 1 µM, 7x7, partner max 1 µM)",-0.0539,–,-0.0325,0.0031,-0.0203,-0.028,-0.0585,0.0464,-0.0259,-0.0216,-0.0207,-0.0129,0.039,0.0124,0.033,-0.022,0.0392,0.0037,0.007,0.009
"CN(CCO)CC[C@H](CSc1ccccc1)Nc1ccc(S(=O)(=O)NC(=O)c2ccc(N3CCC([C@@H](O)c4ccccc4-c4ccc(Cl)cc4)CC3)cc2)cc1S(=O)(=O)C(F)(F)F [AZD4320] + Cn1cnc2c(F)c(Nc3ccc(Br)cc3Cl)c(C(=O)NOCCO)cc21 [Selumetinib] (first compound max 1 µM, 7x7, partner max 3 µM)",0.0309,–,-0.0017,0.0571,-0.0255,0.0082,0.0119,0.0143,-0.0656,0.0021,-0.0054,0.0069,-0.0507,-0.0061,-0.0215,-0.012,-0.0023,0.0402,0.0749,0.0212
"Cc1c2c(nn1C)CSCc1cc(n(C)n1)CSc1cc(c3ccccc3c1)OCCCc1c(C(=O)O)n(C)c3c-2c(Cl)ccc13 [AZD5991] + CC1(C)CCC(CN2CCN(c3ccc(C(=O)NS(=O)(=O)c4ccc(NCC5CCOCC5)c([N+](=O)[O-])c4)c(Oc4cnc5[nH]ccc5c4)c3)CC2)=C(c2ccc(Cl)cc2)C1 [Venetoclax] (first compound max 1 µM, 7x7, partner max 1 µM)",-0.0557,-0.026,0.106,–,0.0016,-0.0318,-0.0549,-0.0151,0.0364,-0.0148,0.0558,-0.0272,-0.0082,0.0725,0.241,-0.0252,-0.0233,-0.0882,0.0122,-0.0001
"Cc1c2c(nn1C)CSCc1cc(n(C)n1)CSc1cc(c3ccccc3c1)OCCCc1c(C(=O)O)n(C)c3c-2c(Cl)ccc13 [AZD5991] + CCN(CCO)CCCOc1ccc2c(Nc3cc(CC(=O)Nc4cccc(F)c4)[nH]n3)ncnc2c1 [AZD2811] (first compound max 1 µM, 7x7, partner max 1 µM)",0.0128,–,0.0225,-0.0077,-0.049,-0.0037,0.0108,0.0712,0.038,0.0077,0.0377,0.0109,-0.0014,-0.0016,0.191,-0.0141,0.0074,-0.0477,0.0153,0.0156
"Cc1c2c(nn1C)CSCc1cc(n(C)n1)CSc1cc(c3ccccc3c1)OCCCc1c(C(=O)O)n(C)c3c-2c(Cl)ccc13 [AZD5991] + Cc1cc2ncnn2cc1Nc1ncc2c(n1)n(C1CCOCC1)c(=O)n2C [AZD7648] (first compound max 1 µM, 7x7, partner max 10 µM)",-0.032,-0.0378,0.0066,-0.0304,-0.0536,0.0003,-0.0896,0.0455,-0.0144,-0.0632,0.0284,-0.0408,-0.0292,-0.016,–,-0.0115,-0.0322,-0.0784,-0.0341,0.0101

# Reference: the supplement of paper PMC11061612
